Results: patent publication US9040749B2, “Borazine derivatives” (UNIVERSITE DE NAMUR, priority 2011, dated 2015)

Tests used:
[1] = Solubility in organic solvents; format: physicochemical
[2] = Stability at air and room temperature, NMR spectra at t=0 and t=10 months; format: physicochemical; conditions: NMR spectra at t=0 and t=10 months (FIG. 5)

| Solubility ([1]; solvent: Chloroform) | Solubility ([1]; solvent: Dichloromethane) | Solubility ([1]; solvent: Ethyl acetate) | Solubility ([1]; solvent: Toluene) | Stability at air and room temperature [2] | Solubility (miscibility) ([1]; compound is an oil, toluene, ethyl acetate, dichloromethane, benzene and chloroform) | Structure (SMILES) |
| --- | --- | --- | --- | --- | --- | --- |
| 54 Milligram/milliliter | 102 Milligram/milliliter | 62 Milligram/milliliter | 45 Milligram/milliliter | excellent stability |  | Cc1cc(C)c(B2N(c3ccccc3)B(c3c(C)cc(C)cc3C)N(c3ccccc3)B(c3c(C)cc(C)cc3C)N2c2ccccc2)c(C)c1 [borazine derivative 1, N,N′,N″-triphenyl-B,B,B″-tri(2,4,6-trimethyl)phenyl borazine] |
|  |  |  |  |  | miscible | CCCCCCCCCCCCc1ccc(N2B(c3c(C)cc(C)cc3C)N(c3ccc(CCCCCCCCCCCC)cc3)B(c3c(C)cc(C)cc3C)N(c3ccc(CCCCCCCCCCCC)cc3)B2c2c(C)cc(C)cc2C)cc1 [borazine derivative 2, N,N′,N″-tri(4-dodecyl)phenyl-B,B,B″-tri(2,4,6-trimethyl)phenyl borazine] |
